From patent US20120082736A1, “Small-molecule TNF modulator to reduce the side effects of chemotherapy and radiotherapy” (GeneBlue Corporation, priority 2010, published 2012)

Tests used:
[1] = test system: BDF1 mice; assay: Cisplatin side-effect time course / MTD, ip daily ×5 (Example 1); format: in vivo; conditions: ip daily ×5, BDF1 mice
Description: First, 0.25 mL of 0.2 mg/mL cisplatin (eq to 2.5 mg/kg) in saline was injected ip, daily ×5, in BDF1 mice. Saline was used as a control. Two mice were used per group and sacrificed on day 0 (control), 2, 4, 7, 9, 11, and 15. In addition, 2 BDF1 mice were injected with a higher dose, 0.25 mL of 0.4 mg/mL cisplatin (eq to 5 mg/kg), daily ×5. Unfortunately, for the higher dose, 1 mouse died on day 7 and the second was euthanized on day 14. This confirms the MTD of cisplatin was <5 mg/kg by ip daily ×5 as shown in the MTD study.
To further narrow down the exact day between day 4 and 7, a follow-up animal study was conducted employing cisplatin at 2.5 mg/kg and the mice were sacrificed on day 0 (control), 5, 6, and 7 (2 mice per point).

[2] = test system: BDF1 female mice treated with cisplatin; assay: Effect of pretreatment on BUN/creatinine, AST/ALT, WBC/platelet in blood of cisplatin-treated mice (Example 2); format: in vivo; conditions: blood day 6; for platelet count, effect of pretreatment: vs Gp 1 (Control)
Description: Gp 1: medium (saline). Gp 2: saline followed by cisplatin (2.5 mg/kg) 30 min later. Gp 3: UTL-5g (15 mg/kg) followed by cisplatin (2.5 mg/kg) 30 min later. Gp 4: UTL-5g (30 mg/kg) followed by cisplatin (2.5 mg/kg) 30 min later. Gp 5: UTL-5g (60 mg/kg) followed by cisplatin (2.5 mg/kg) 30 min later. Gp 6: amifostine (200 mg/kg) followed by cisplatin (2.5 mg/kg) 30 min later; Gp 7: saline followed by cisplatin (5 mg/kg) 30 min later. Gp 1-Gp 6 were daily ×5, but Gp 7 was by single dose on day 0 only. StDev is shown for each Gp (n=5 for each group except for Gp 7, n=3). ** two-tailed p<0.005 vs medium control by Student's t-test.
(§1) Gp 1: medium (saline). Gp 2: saline followed by cisplatin (2.5 mg/kg) 30 min later. Gp 3: UTL-5g (15 mg/kg) followed by cisplatin 30 min later. Gp 4: UTL-5g (30 mg/kg) followed by cisplatin (2.5 mg/kg) 30 min later. Gp 5: UTL-5g (60 mg/kg) followed by cisplatin (2.5 mg/kg) 30 min later. Gp 6: amifostine (200 mg/kg) followed by cisplatin (2.5 mg/kg) 30 min later. Gp 7: saline followed by cisplatin (5 mg/kg) 30 min later. Gp 1-Gp 6 were daily ×5, but Gp 7 was by single dose on day 0 only. StDev is shown for each Gp (n=5 for each group except n=4 for Gp 7). * P<0.05, ** p<0.005 vs. medium control (Gp 1) by Student's t-test (two-tailed).
as §1, with “p<0.005, *** p<0.0005” for “p<0.005”, “control” for “control (Gp 1)”
BDF1 female mice (average wt ˜20 g/mouse) were randomly divided into the following groups (5 mice per group) and each treated daily ×5 (starting from day 0) by ip injection (0.25 mL/mouse), except in Gp 7, each was treated by a single dose ip injection (0.25 mL/mouse) on day 0 only, as described below • Gp 1: medium (saline) followed by medium (saline) 30 min later • Gp 2: medium (saline) followed by cisplatin (2.5 mg/kg) 30 min later • Gp 3: UTL-5g (15 mg/kg) followed by cisplatin (2.5 mg/kg) 30 min later • Gp 4: UTL-5g (30 mg/kg) followed by cisplatin (2.5 mg/kg) 30 min later • Gp 5: UTL-5g (60 mg/kg) followed by cisplatin (2.5 mg/kg) 30 min later • Gp 6: amifostine (200 mg/kg) followed by cisplatin (2.5 mg/kg) 30 min later • Gp 7: medium (saline) followed by cisplatin (5 mg/kg) 30 min later (single dose on Day 0 only)
Preparation of the test samples are described below: • Cisplatin: Cisplatin was dissolved in saline (0.2 and 0.4 mg/mL in saline) for 2.5 and 5 mg/kg ip injection. • UTL-5g: The stock solution of UTL-5g was first dissolved in DMSO and equal volume of Cremophor/propylene glycol (60/40 v/v) was added to make a stock solution. Immediately before the injection, saline was added to this temporary solution at a 90:10 v/v ratio and mixed thoroughly. Three concentrations for ip injection were prepared (1.25, 2.5, and 5 mg/mL) so that the doses are equivalent to 15, 30, and 60 mg/kg with a 0.25 mL injection. • Amifostine: The stock solution of amifostine was dissolved in saline to the desired concentration (16 mg/mL) for the 200 mg/kg injection.
Cardiac puncture was used to obtain blood from each mouse on day 6. To assess liver/kidney protection by UTL-5g, all blood samples were analyzed for BUN, creatinine, AST, and ALT by the chemistry lab at Henry Ford Health System. Unopette® (Becton Dickinson, Franklin Lakes, N.J.) diluting systems and a hemocytometer were used to assess the effect of UTL-5g on WBC and platelet counts in blood.

[3] = test system: TNF-α; assay: TNF-α levels in plasma of cisplatin-treated mice (commercial assay kit, eBioscience); format: in vivo; conditions: cisplatin 2.5 mg/kg ip daily ×5; pooled plasma day 6
Description: FIG. 5. Effect of UTL-5g on TNF-α levels in plasma for mice treated with cisplatin. Gp 1, medium control (saline) only; Gp 2, saline followed by cisplatin (2.5 mg/kg) 30 min later; Gp 3, UTL-5g (15 mg/kg) followed by cisplatin 30 min later; Gp 4, UTL-5g (30 mg/kg) followed by cisplatin 30 min later; Gp 5, UTL-5g (60 mg/kg) followed by cisplatin 30 min later. Y axis represents the relative levels of TNF-α assuming 0% for Gp 1 (Control). Level of TNF-α on the figure is based on the average of 2 readings. […]
Using the samples from the same animal study, TNF-α levels in plasma were analyzed. […]

[4] = test system: tumor cells; conditions: animal data; cited from earlier work
[5] = within 1 h, cited from earlier work
[6] = cisplatin 2.5 mg/kg ip daily ×5 or 5 mg/kg single dose
[7] = cisplatin 5 mg/kg ip single dose day 0 (Gp 7) vs Control (Gp 1)
[8] = ip 30 min before cisplatin 2.5 mg/kg, daily ×5, UTL-5g 15, 30, 60 mg/kg, amifostine 200 mg/kg

| Compound | MTD of cisplatin [1] | ALT levels, effect of cisplatin [2, 6] | AST levels, effect of cisplatin [2, 6] | BUN levels, effect of cisplatin [2, 6] | creatinine, effect of cisplatin [2, 6] | WBC count, effect of cisplatin [2, 7] | platelet count, effect of cisplatin [2, 7] | TNF-α in plasma, effect of cisplatin [3] | tumor-protective effect [4] | BUN levels, effect of pretreatment [2, 8] | creatinine, effect of pretreatment [2, 8] | platelet count, effect of pretreatment [2, 8] | platelet count, effect of pretreatment ([2]; ip 30 min before cisplatin 2.5 mg/kg, daily ×5, UTL-5g 15, 30, 60 mg/kg, amifostine 200 mg/kg, listed as Amifostine) | cleared from the plasma, share of the peak concentration ([5]; amifostine) | metabolite cleared from the plasma, share of the peak concentration ([5]; metabolite of amifostine) |
| --- | --- | --- | --- | --- | --- | --- | --- | --- | --- | --- | --- | --- | --- | --- | --- |
| N.N.[Cl][Pt][Cl] [cisplatin, cis-dichlorodiammine platinum, reference compound] | < 5 mg/kg | elevated by cisplatin | elevated by cisplatin | elevated by cisplatin in a dose-dependent manner | Essentially the same results | lower WBC count as compared to Control | did decrease platelet count significantly | elevated by cisplatin | – | – | – | – | – | – | – |
| NCCCNCCSP(=O)(O)O [amifostine, reference compound] | – | – | – | – | – | – | – | – | may have tumor-protective effect | essentially the same reduction | Essentially the same results | statistically significant decrease on platelet count | does not have similar positive effect on platelet production | 95% | 50% |
